According to patent publication US20260183350A1, “ANTIBIOTIC-RESISTANT BACTERIA” (priority 2022, published 2026):

Tests used:
[1] = test system: vancomycin-resistant E. faecalis; test: VRE nutrient utilization protocol: carbon sources; format: cell-based, Enterococcus faecalis; conditions: aerobic; VRE minimal medium
Description: (§1) VRE minimal media consists of potassium phosphate monobasic (4 g/L), potassium phosphate dibasic (14 g/L), sodium citrate (1 g/L), magnesium sulphate (0.2 g/L), ammonium sulphate (2 g/L), adenosine (0.04 g/L), thymine (0.04 g/L), Kao and Michayluk vitamin solution [Sigma, K3129, 50× Stock](5×), glucose (1 g/L) and amino acid solution [Sigma, R7131, RPMI-1640, 50×](25×). If the study was performed under anaerobic conditions, fumarate (5.2 g/L) was added to increase growth of VRE strains. Carbon-free minimal media was prepared by leaving out glucose while nitrogen-free minimal media was prepared without the amino acid solution. Media was filter sterilized with a 0.22 micron filter and used immediately aerobically or degassed overnight if used anaerobically.
(§2) VRE strains were grown on R2A overnight before the cells were suspended in 0.9% saline to an OD of 0.38 (λ=595 nm). A 10% dilution of the cell suspension was prepared using VRE minimal media to achieve a final well OD of […] (λ=595 nm) greater than the sterile media OD. Both carbon and nitrogen source utilization were evaluated by adding the inoculated media and a filter-sterilised nutrient source solution into a well in a 1:1 ration to a final volume of 100 μL in aerobic tests and 200 μL in anaerobic tests. Carbon sources were tested individually and compared to a carbon-free control. To test nitrogen source utilization, a nitrogen source solution was prepared containing L-alanine (2 g/L), L-arginine (2.5 g/L, L-asparagine (0.71 g/L), L-aspartate (0.25 g/L), L-cysteine (0.625 g/L), L-glutamate (0.25 g/L), L-Glycine (0.125 g/L), L-histidine (0.1875 g/L), L-isoleucine (0.625 g/L), L-leucine (0.625 g/L), L-lysine HCl (0.5 g/L), L-methionine (0.1875 g/L), L-phenylalanine (0.1875 g/L), L-proline (0.25 g/L), L-serine (0.375 g/L), L-threonine (0.25 g/L), L-tryptophan (0.0625 g/L), L-tyrosine (0.29 g/L), L-valine (0.25 g/L), N-acetylglucosamine (2 g/L), and uracil (2.5 g/L). To test the strains' ability to utilize individual nitrogen sources, separate solutions were prepared eliminating one nitrogen source each. The change in growth compared to the complete nitrogen source solution control was used to determine nitrogen utilization. All carbon and nitrogen sources were tested in a technical triplicate for each biological replicate. Aerobic plates were incubated with a plate seal while anaerobic plates were not. The aerobic plate reader was set to read the plate (λ=595 nm, 37° C., 22 flashes per well, orbital shaking of 100 rpm for 15 s prior to each read) every 15 minutes for 24 hours. The anaerobic plate reader read the plate (λ=595 nm, 37° C., stationary) every 15 minutes for 24 hours.

[2] = test system: NDM-1 Klebsiella pneumoniae; test: Nitrogen utilisation assay; format: cell-based; conditions: M9 minimal medium with glucose, 0.1% (w/v) nitrogen source
Description: (§3) New Delhi Metallo-β-lactamase 1 (NDM-1) Escherichia coli, NDM-1 Klebsiella pneumoniae, and NDM-1 Enterobacter cloacae were isolated from patients with intestinal CRE colonisation from the Imperial College Healthcare NHS Trust via rectal swab (REC ref. 19/LO/0112). The species were assigned by matrix assisted laser desorption ionization-time of flight (MALDI-TOF) mass spectrometry and later confirmed with 16S rRNA gene sequencing. CRE status was determined using X-pert Carba-R PCR detection (Cepheid, Sunnyvale, CA, USA), (Otter, J. A. et al. Detecting carbapenemase-producing Enterobacterales (CPE): an evaluation of an enhanced CPE infection control and screening programme in acute care. J Antimicrob Chemother 75, 2670-2676 (2020)).
(§4) Growth of CRE isolates on sole carbon or nitrogen sources was tested by inoculating each CRE isolate into a minimal medium supplemented with the nutrient of interest. First, CRE isolates were passaged from frozen glycerol stocks on Reasoner's 2A agar (R2A) plates. Cells were then suspended in M9 minimal media to a turbidity of 42% using a Turbidimeter (Biolog Inc.), then diluted a further 1 in 6 to inoculate the carbon or nitrogen utilisation assays. M9 minimal media contained the following (at final concentrations): 22 mM KH2PO4, 42 mM Na2HPO4, 9 mM NaCl, 0.49 mM MgSO4·7H2O, 0.09 mM CaCl2), 0.011 mM FeSO4·7H2O. For the carbon assays the M9 minimal medium was also supplemented with 0.1% (w/v) NH4Cl (as the nitrogen source) and the carbon sources were individually tested at 0.5% (w/v) concentration. For the nitrogen assays the M9 minimal medium was also supplemented with 0.5% (w/v) glucose (as the carbon source) and the nitrogen sources were individually tested at 0.1% (w/v) concentration. Cultures were incubated anaerobically and aerobically in a plate reader and OD600 readings were collected every 15 minutes for 24 hours.
(§5) Growth curves were analysed in Python (v3.6.5) using the AMiGA software (Midani, F. S., Collins, J. & Britton, R. A. AMiGA: Software for Automated Analysis of Microbial Growth Assays. mSystems 6, e0050821 (2021)). Growth of each isolate was measured with 6 wells from 2-3 independent experiments. Growth curves were normalised to the no substrate control using the subtraction method. AMiGA performed Gaussian Process regression to test differential growth between the substrate and the no substrate control. The functional difference in the OD (and its credible interval) was also computed between the substrate and the no substrate control.

[3] = test system: NDM-1 Escherichia coli; test: Nitrogen utilisation assay; format: cell-based; conditions: anaerobic; M9 minimal medium with glucose, 0.1% (w/v) nitrogen source
Description: as §3, §4, §5

[4] = test system: NDM-1 Enterobacter cloacae; test: Nitrogen utilisation assay; format: cell-based; conditions: anaerobic; M9 minimal medium with glucose, 0.1% (w/v) nitrogen source
Description: as §3, §4, §5

[5] = test system: vancomycin-resistant E. faecium; test: VRE nutrient utilization protocol: carbon sources; format: cell-based, Enterococcus faecium; conditions: aerobic; VRE minimal medium
Description: as §1, §2

[6] = test system: NDM-1 Klebsiella pneumoniae; test: Carbon utilisation assay; format: cell-based; conditions: M9 minimal medium, 0.5% (w/v) carbon source
[7] = test system: NDM-1 Escherichia coli; test: Carbon utilisation assay; format: cell-based; conditions: M9 minimal medium, 0.5% (w/v) carbon source
[8] = test system: NDM-1 Enterobacter cloacae; test: Carbon utilisation assay; format: cell-based; conditions: anaerobic; M9 minimal medium, 0.5% (w/v) carbon source
[9] = test system: NDM-1 Klebsiella pneumoniae; test: Individual metabolite inhibition assay; format: cell-based; conditions: LB pH 6.5, 16 hours anaerobic
Description: as §3
(§6) Each metabolite was tested individually in an inhibition assay against each CRE isolate. Each metabolite was tested at three concentrations: the low, average, and high concentrations that were measured in healthy faeces (from Table 1). LB was supplemented with each metabolite (at the three different concentrations) and compared to a no metabolite control. […] Overnight cultures of each CRE isolate were inoculated at 10^3 CFU/ml. Cultures were incubated anaerobically for 16 hours at 37° C. Growth was measured at OD600 after 16 hours of incubation. Growth of the CRE isolate in the presence of each metabolite was compared to the no metabolite control using a one-way ANOVA followed by Dunn's multiple comparison test.

[10] = test system: NDM-1 Escherichia coli; test: Individual metabolite inhibition assay; format: cell-based; conditions: LB pH 6.5, 16 hours anaerobic
Description: as §3, §6

[11] = test system: NDM-1 Enterobacter cloacae; test: Individual metabolite inhibition assay; format: cell-based; conditions: LB pH 6.5, 16 hours anaerobic
Description: as §3, §6

[12] = at average and high concentrations (Table 1)
[13] = at low, average, and high concentrations (Table 1)

| Compound | Use as sole carbon source to support E. faecalis growth [1] | Use as sole carbon source to support E. faecium growth [5] | Use as sole carbon source to support E. cloacae growth [8] | K. pneumoniae growth (OD600) with individual metabolite [9, 12] | E. cloacae growth (OD600) with individual metabolite [11, 12] | E. coli growth (OD600) with individual metabolite [10, 12] | also measured |
| --- | --- | --- | --- | --- | --- | --- | --- |
| CC(=O)N[C@H]1C(O)O[C@H](CO)[C@@H](O)[C@@H]1O (some centres unmarked) [N-acetylglucosamine] | could use | could use | could use | – | – | – | Use as sole nitrogen source to support K. pneumoniae growth ([2]; aerobic): not able to use; Use as sole nitrogen source to support K. pneumoniae growth ([2]; anaerobic): could use; Use as sole nitrogen source to support E. coli growth [3]: could use; Use as sole nitrogen source to support E. cloacae growth [4]: could use; Use as sole carbon source to support K. pneumoniae growth ([6]; anaerobic): could use; Use as sole carbon source to support E. coli growth ([7]; anaerobic): could use |
| CC(=O)O [acetate] | – | – | – | inhibited | inhibited | – | E. coli growth (OD600) with individual metabolite [10, 13]: inhibited |
| CCCC(=O)O [butyrate] | – | – | – | – | – | – | K. pneumoniae growth (OD600) with individual metabolite [9, 13]: inhibited; E. coli growth (OD600) with individual metabolite ([10]; at high concentrations (Table 1)): inhibited; E. cloacae growth (OD600) with individual metabolite [11, 13]: inhibited |
| CCO [ethanol] | – | – | – | – | – | inhibited | E. cloacae growth (OD600) with individual metabolite ([11]; at the high concentration (Table 1)): inhibited |
| CC(C)C(=O)O [isobutyrate] | – | – | – | inhibited | inhibited | – | – |
| CCC(=O)O [propionate] | – | – | – | inhibited | inhibited | inhibited | – |
| O=C[C@H](O)[C@H](O)[C@H](O)CO [ribose, D-ribose] | could use | could use | could use | – | – | – | Use as sole carbon source to support K. pneumoniae growth ([6]; aerobic): able to grow; Use as sole carbon source to support E. coli growth ([7]; aerobic): able to grow |
| OC[C@H]1O[C@H](O[C@H]2O[C@H](CO)[C@@H](O)[C@H](O)[C@H]2O)[C@H](O)[C@@H](O)[C@@H]1O [trehalose, D-trehalose] | could use | could use | could use | – | – | – | Use as sole carbon source to support K. pneumoniae growth ([6]; anaerobic): could use; Use as sole carbon source to support E. coli growth ([7]; anaerobic): could use |
| CCCCC(=O)O [valerate] | – | – | – | inhibited | – | inhibited | E. cloacae growth (OD600) with individual metabolite [11, 13]: inhibited |
